# Results: PMC7618719, “Generation of T cells with reduced off-target cross-reactivities by engineering co-signalling receptors” (Nature Biomedical Engineering, 2026)
# Tested on: Lck
# Assay: Lck chemical inhibition assay, CD69 on A-770041-treated c259 TCR-T cells
# Format: cell-based, human
# Details: c259 TCR-T cells treated 1 h with A-770041, U87 with NY-ESO-1 peptides, 4 h, CD69 and TNFα
# Protocol: U87 cells (50,000) in 100 μl of DMEM were seeded per well in a 96-well flat-bottom plate and incubated overnight. T cells were treated with the appropriate concentration of A-770041 for 1 h. The DMEM media were discarded and 50,000 A-770041-treated T cells were added to each well in 200 μl of RPMI media. Cells were incubated for 4 h at 37 ^∘C and 5% CO2.
# Cells were stained for 20 min at 4 ^∘C, washed with PBS and analysed using a BD X-20 or a Cytoflex LX flow cytometer (Beckman Couter). Data were analysed using FlowJo v.10, RRID:SCR008520 (BD Biosciences) and GraphPad Prism, RRID:SCR002798 (GraphPad Software).
structure (smiles),measurement,value
COc1cc(-c2nn([C@H]3CC[C@H](N4CCN(C(C)=O)CC4)CC3)c3ncnc(N)c23)ccc1NC(=O)c1cc2ccccc2n1C [A-770041],effect of Lck inhibition on T cell ligand discrimination,increases T cell ligand discrimination
